# Target: T1, TLR2 (Homo sapiens, UniProt O60603)
# T1 construct: host or cells: HEK293-TLR2
# Assay: Pam3CSK4-induced IL-8 secretion in HEK293-TLR2 cells (IL-8 ELISA)
# Assay type: cell-based
# Details: compound 1 hour then co-treated with 50 nM Pam3CSK4, FIG. 15
# Protocol: HEK293-TLR2 (expressed at endogenous levels of TLR1) and HEK293-Null cell lines were cultured in 96-well tissue culture plates (BD Biosciences) at a density of 1×10^4 cells/wells, 37° C., 95% air and 5% CO2 for 24 hours. In order to determine the agonist activity, a cell stimulation was achieved by treatment with 50 μM of compound and 50 nM of Pam3CSK4 (Invivogen, San Diego, Calif., USA). In order to determine the antagonist activity, cells were treated with various concentrations of compound for 1 hour and then co-treated with 50 nM of Pam3CSK4. The next day, IL-8 secretion was quantified by human IL-8 ELISA Ready-SET-Go! ® (Second generation) kit (eBioscience, San Diego, Calif., USA) according to the method of the manufacturer's guide, and the quantified results are illustrated in FIG. 15.
# For the dose-dependent analysis of the top three compounds (S06690562, S01688300, S01382085) among the six compounds, the concentrations of the three compounds were varied to 12.5, 25, and 50 μM, and the secretion amount of IL-8 was analyzed as the above method. The results are illustrated in FIG. 16.
# T1 sequence (O60603 21-784): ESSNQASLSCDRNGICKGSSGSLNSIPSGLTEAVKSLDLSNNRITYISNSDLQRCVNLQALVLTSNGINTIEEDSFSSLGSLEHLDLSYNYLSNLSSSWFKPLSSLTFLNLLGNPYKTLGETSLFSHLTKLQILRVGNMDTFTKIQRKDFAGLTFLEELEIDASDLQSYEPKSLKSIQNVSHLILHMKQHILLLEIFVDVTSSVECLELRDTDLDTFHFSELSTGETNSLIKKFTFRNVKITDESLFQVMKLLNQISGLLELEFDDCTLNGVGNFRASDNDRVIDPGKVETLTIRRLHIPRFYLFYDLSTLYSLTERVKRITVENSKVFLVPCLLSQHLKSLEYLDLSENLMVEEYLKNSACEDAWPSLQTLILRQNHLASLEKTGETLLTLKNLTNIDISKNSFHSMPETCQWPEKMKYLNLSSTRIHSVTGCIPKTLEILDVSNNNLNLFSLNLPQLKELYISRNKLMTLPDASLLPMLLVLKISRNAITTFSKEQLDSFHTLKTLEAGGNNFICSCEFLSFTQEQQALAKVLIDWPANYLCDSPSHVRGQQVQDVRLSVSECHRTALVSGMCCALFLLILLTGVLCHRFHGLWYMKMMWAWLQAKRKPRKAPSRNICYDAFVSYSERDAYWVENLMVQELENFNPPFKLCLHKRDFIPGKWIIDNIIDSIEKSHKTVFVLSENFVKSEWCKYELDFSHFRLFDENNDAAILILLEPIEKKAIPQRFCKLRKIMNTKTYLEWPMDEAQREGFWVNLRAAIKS
row,Pam3CSK4-induced IL-8 secretion amount,Structure (SMILES)
1,greatly reduced,COC(=O)c1c(NC(=O)NCCN2CCOCC2)sc2c1CCC2 [Compound S01382085]
2,greatly reduced,CCN(Cc1ccncc1)Cc1cccc(OCC(O)CN2CCC(O)CC2)c1 (centres unmarked) [Compound S01688300]
3,greatly reduced,CC1CCCN(C(C)CNC(=O)CCNC(=O)C2CC2C)C1 (centres unmarked) [Compound S02276077]

# Second part, the compound before the results:
row,Structure (SMILES),Pam3CSK4-induced IL-8 secretion amount
1,Cc1cc(C)c(NC(=O)CNC(=O)CN(C)CC(=O)NCC(F)(F)F)c(C)c1 [Compound S06690562],greatly reduced
2,CC(C)Oc1cccc(CC(=O)N2CCCN(CC(N)=O)CC2)c1 [Compound S06696686],greatly reduced

# From patent US10308655B2, “Method of treating Crohn's disease comprising a TLR2 antagonist” (AJOU UNIVERSITY INDUSTRY-ACADEMIC COOPERATION FOUNDATION, priority 2015, dated 2019)
